# Reference: US20190192697A1, “CHEMICAL PROBES OF LYSYL OXIDASK-LIKE 2 AND USES THEREOF” (PHARMAKEA, INC., priority 2016, published 2019)
# Counter-ions that a name gives are not always drawn. Like-named read-outs stand apart in the source and are kept apart here.
# Assays:
# LOXL2 [1] = molecular target: T1, LOXL2 (Homo sapiens, UniProt Q9Y4K0); test: LOXL2 target engagement in plasma of healthy volunteers after single oral dose (Western-based FG bead assay); format: in vivo; design: from tissue; host or cells: human plasma (donors / healthy volunteers)
# T1 sequence (Q9Y4K0 26-774): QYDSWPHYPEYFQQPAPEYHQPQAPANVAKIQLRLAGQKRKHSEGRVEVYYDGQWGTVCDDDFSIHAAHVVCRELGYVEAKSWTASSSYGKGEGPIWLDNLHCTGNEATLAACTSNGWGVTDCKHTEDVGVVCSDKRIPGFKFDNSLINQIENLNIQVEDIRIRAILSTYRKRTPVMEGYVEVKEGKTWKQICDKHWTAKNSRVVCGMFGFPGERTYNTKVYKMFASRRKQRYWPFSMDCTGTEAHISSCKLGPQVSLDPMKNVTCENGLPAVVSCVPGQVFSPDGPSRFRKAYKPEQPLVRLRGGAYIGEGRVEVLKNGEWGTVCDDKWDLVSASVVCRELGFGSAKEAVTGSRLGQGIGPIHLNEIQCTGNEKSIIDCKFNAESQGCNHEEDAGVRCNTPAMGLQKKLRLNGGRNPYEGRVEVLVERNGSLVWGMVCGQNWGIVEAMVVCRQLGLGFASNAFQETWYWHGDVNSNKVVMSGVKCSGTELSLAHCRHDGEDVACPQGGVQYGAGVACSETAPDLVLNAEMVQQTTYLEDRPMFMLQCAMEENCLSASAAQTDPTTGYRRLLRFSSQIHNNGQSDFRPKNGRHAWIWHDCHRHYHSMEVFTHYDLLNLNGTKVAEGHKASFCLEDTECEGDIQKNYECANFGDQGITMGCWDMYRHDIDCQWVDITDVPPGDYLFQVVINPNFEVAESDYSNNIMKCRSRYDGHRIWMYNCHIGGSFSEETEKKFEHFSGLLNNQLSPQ
# Method: Beads are resuspended to 10 mg/mL in Wash Buffer (20 mM Tris pH 8, 0.2% NP-40, 120 mM NaCl) and 1 mg beads (100 μL) are added to 1-10 mL of plasma, serum or other biological fluid containing LOXL2 and incubated at 37° C. for 0.5-2 hours with rotation. Beads are separated from plasma or other matrix using magnetic separation (for example, DynaMag™-15 Magnet) for 10 minutes at room temperature then the plasma/matrix carefully removed. The beads are resuspended in 1 mL Wash Buffer, vortexed and centrifuged at 4500×g for 5 minutes at room temperature to move all beads to the bottom of the tube. Beads are transferred to a 1.5 mL microfuge tube and washed 3 times with Wash Buffer using magnetic separation (for example, DynaMag™-2 Magnet). After the final wash, beads are resuspended in 40 μL of 1× BOLT® LDS Sample Buffer (Thermo Fisher, Waltham, Mass.) containing 1× BOLT® Sample Reducing Agent (Thermo Fisher, Waltham, Mass.) and incubated for 10 minutes at 90° C. Samples are centrifuged at 10,000×g for 1 minute then magnetically separated using a DynaMag™-2 Magnet for 2 minutes. 40 μL of each supernatant is loaded into one well of a 10 well 4-12% Bis-Tris Plus gel (Thermo Fisher, Waltham, Mass.) and the gels run for 45 minutes at 164 volts in 1×MES SDS Running Buffer (Thermo Fisher, Waltham, Mass.). Gels are transferred to nitrocellulose using iBlot (Thermo Fisher, Waltham, Mass.) according to the manufacturer's recommendation. Blots are incubated in Bullet Blocking One (Nacalai USA, Inc) for 5 minutes at room temperature then incubated overnight at 4° C. with an anti-LOXL2 antibody (for example, R&D Systems goat polyclonal) diluted in Signal Enhancer Solution 1 (Nacalai USA, Inc). Blots are rinsed quickly twice in PBS/0.1% tween-20 then washed 3 times for 10 minutes each in the PBS/tween solution. A secondary infrared dye (IRdye)-conjugated secondary antibody (LI-COR Biosciences, Lincoln, Neb.) diluted in Signal Enhancer 2 (Nacalai USA, Inc) is added to the blot and incubated for 45 minutes-1 hour at room temperature in the dark. Blots are washed as above with PBS/tween then rinsed in PBS before imaging with a LI-COR Odyssey (LI-COR, Lincoln, Neb.).
# Healthy human subjects (male and female) were dosed with compound 2 in solution. […] Placebo data is the average of all the placebo subjects in the single dose study (n=10).
# LOXL2 [2] = molecular target: T1, LOXL2; test: Western-based magnetic bead assay for free/unbound LOXL2 in human plasma pre-incubated with compound; format: binding; design: from tissue; host or cells: human plasma (donors / healthy volunteers); conditions: 10 mL human plasma, 2 hours at 37° C., capture with FG beads (Compound 1-7)
# Method: Beads are resuspended to 10 mg/mL in Wash Buffer (20 mM Tris pH 8, 0.2% NP-40, 120 mM NaCl) and 1 mg beads (100 μL) are added to 1-10 mL of plasma, serum or other biological fluid containing LOXL2 and incubated at 37° C. for 0.5-2 hours with rotation. Beads are separated from plasma or other matrix using magnetic separation (for example, DynaMag™-15 Magnet) for 10 minutes at room temperature then the plasma/matrix carefully removed. The beads are resuspended in 1 mL Wash Buffer, vortexed and centrifuged at 4500×g for 5 minutes at room temperature to move all beads to the bottom of the tube. Beads are transferred to a 1.5 mL microfuge tube and washed 3 times with Wash Buffer using magnetic separation (for example, DynaMag™-2 Magnet). After the final wash, beads are resuspended in 40 μL of 1× BOLT® LDS Sample Buffer (Thermo Fisher, Waltham, Mass.) containing 1× BOLT® Sample Reducing Agent (Thermo Fisher, Waltham, Mass.) and incubated for 10 minutes at 90° C. Samples are centrifuged at 10,000×g for 1 minute then magnetically separated using a DynaMag™-2 Magnet for 2 minutes. 40 μL of each supernatant is loaded into one well of a 10 well 4-12% Bis-Tris Plus gel (Thermo Fisher, Waltham, Mass.) and the gels run for 45 minutes at 164 volts in 1×MES SDS Running Buffer (Thermo Fisher, Waltham, Mass.). […]
# [3] = Plasma drug concentration in healthy human subjects after single oral dose; format: in vivo; conditions: for concentration at 2 h / concentration at 24 h: both sexes, human, plasma, read-out: Ave plasma Cmpd 2 conc; for concentration at 2 h: 2 hour post-dose
# Method: The amount of free/unbound LOXL2 was evaluated in 8 mL plasma from six healthy subjects at pre-dose or at 2, 24 or 48 hours after a single oral dose of Compound 1-13A and in two healthy subjects dosed with placebo. On average, the amount of free/unbound LOXL2 was decreased by approximately 60% at 2 hours post-dosing in the subjects receiving 150 mg of Compound 1-13a (see FIG. 7).
# Healthy human subjects (male and female) were dosed with compound 2 in solution. Blood samples were drawn at regular intervals and the plasma isolated and analyzed for compound 1-13a concentration as well as LOXL2 target engagement. Placebo data is the average of all the placebo subjects in the single dose study (n=10).
# [4] = 150 mg single oral dose, 24 hour post-dose
# [5] = 450 mg single oral dose, 24 hour post-dose
# [6] = 1000 mg single oral dose, 24 hour post-dose
structure (smiles),measurement,setting,value
"NCc1cc(Oc2cccc(C(=O)N3C[C@@H](O)[C@H](F)C3)c2)nc(C(F)(F)F)c1 [Compound 1-13a, (R,R)-trans-(3-((4-(Aminomethyl)-6-(trifluoromethyl)pyridin-2-yl)oxy)phenyl)(3-fluoro-4-hydroxypyrrolidin-1-yl)methanone hydrochloride]",Ave plasma % TE,"LOXL2 [1]; 150 mg single oral dose, 2 hour post-dose",62%
same,average decrease of free/unbound LOXL2 in plasma,"LOXL2 [1]; 150 mg single oral dose, 2 hours post-dosing, healthy subjects",approximately 60%
same,Ave plasma % TE,LOXL2 [1]; [4],20%
same,Ave plasma % TE,"LOXL2 [1]; 450 mg single oral dose, 2 hour post-dose",78%
same,Ave plasma % TE,LOXL2 [1]; [5],−13%
same,Ave plasma % TE,"LOXL2 [1]; 1000 mg single oral dose, 2 hour post-dose",92%
same,Ave plasma % TE,LOXL2 [1]; [6],1%
same,IC50,"LOXL2 [1]; plasma samples of healthy volunteers dosed with compound 1-13a, read-out: IC50 of % target engagement versus plasma concentration",905 nM
same,decrease of free/unbound LOXL2 relative to vehicle control,LOXL2 [2]; 1 μM,approximately 63%
same,decrease of free/unbound LOXL2 relative to vehicle control,LOXL2 [2]; 10 μM,~100%
same,Ave plasma Cmpd 2 conc,[3]; [4],BLOQ
same,concentration at 2 h,[3]; 150 mg single oral dose,966 nM
same,concentration at 2 h,[3]; 450 mg single oral dose,4380 nM
same,concentration at 24 h,[3]; [5],3.5 nM
same,concentration at 2 h,[3]; 1000 mg single oral dose,12900 nM
same,concentration at 24 h,[3]; [6],8 nM
